Measurements from patent publication US20250129069A1, “TRIAZOLO WRN INHIBITORS” (Nimbus Wadjet, Inc., priority 2023, published 2025).
Like-named read-outs stand apart in the source and are kept apart here.

Tests used:
[1] = molecular target: human Werner helicase (WRN, amino acids 517-1235 with L1074F point mutation) (Homo sapiens (Human), UniProt Q14191, L1074F); assay: WRN (BV08) ADP-Glo assay; format: biochemical; details: human WRN (aa 517-1235, L1074F), read-out: ADP-Glo_hWRN_IC50
Excerpt: Bovine skin gelatin (BSG), dimethyl sulfoxide (DMSO), Pluronic F-127 and tris(2-carboxyethyl)phosphine hydrochloride solution (TCEP) were purchased from Sigma-Aldrich (St. Louis, MO) at the highest level of purity possible. Bicine buffer solution was purchased from Alfa Aesar (Tewksbury, MA) and compound NSC-617145 was purchased from Tocris (Minneapolis, MN). DNA duplex was synthesized at BGI (Shenzhen, China) and was composed of strand 1 with the sequence 5′-[…]-3′ (SEQ ID NO.: 1) and strand 2 with the sequence 5′-[…]-3′ (SEQ ID NO.: 2). DNA strands were annealed by heating to 95° C. for 5 minutes followed by slow cooling to room temperature. Compounds in 100% DMSO (0.1 μl) were spotted into a 384-well white polystyrene Optiplate-384 (Perkin Elmer; Waltham, MA) assay plate using a LabCyte Echo 550 (Agilent; Santa Clara, CA). DMSO (0.1 μl) was added to columns 12, rows A-H and column 24, rows I-P for the maximum signal control. Compound NSC-617145 (0.1 μl) was added to columns 12, rows I-P and 24, rows A-H for the minimum signal control (100% inhibition). Compounds/DMSO were preincubated for 15 minutes at 25° C. with 5 μl 2×WRN (BV08), prepared as described below, in assay buffer containing 20 mM Bicine (pH=7.5), 1 mM MgCl2, 10 mM KCl, 0.1% Pluronic F-127, 0.005% BSG, 1 mM TCEP. The reaction was initiated by the addition of 5 μl 2× substrate mixture in assay buffer and incubated for 60 minutes at 25° C. The final concentrations of the assay components were 0.15 nM WRN, 5 μM ATP, and 0.1 nM DNA duplex. The final DMSO concentration was 1% and the reference compound concentration (NSC-617145) used for the minimal signal control was 20 μM. The reaction was stopped by the addition of the ADP-Glo Kit components (Promega; Madison, WI) as directed and the relative luminescence units (RLU) were read on an Envision 2104 (Perkin Elmer; Waltham, MA).
% inhibition calculation:
% INH=(RLU MAX−RLU sample)/(RLU MAX−RLU MIN))×100
Where RLU=relative luminescence units, sample=signal in sample well, and MIN and MAX are the respective minimum and maximum signal controls. Four-parameter IC50 fit equation:
Y=Bottom+(Top−Bottom)/(1+(IC50/X)^Hill Slope)
Where top and bottom are normally allowed to float but may be fixed at 100 or 0 respectively in a 3-parameter fit. Y is the % inhibition and X is the compound concentration.
Molecular Biology and virus production. The DNA encoding human Werner helicase (Uniprot Q14191, amino acids 517-1235 with L1074F point mutation) was generated with codon-optimization for E. coli expression and subcloned into the pFastBac vector with a TEV cleavable 8×His tag (WRN—BV08). The baculovirus from the expression plasmid WRN—BV08 was generated from transfection and amplification following the manufacturer's instructions.
Sf9 cells grown in SF900II media were infected with 1:200 WRN—BV08 P2 virus and incubated for protein expression for 72 h at 27° C. The WRN protein was purified using the following protocol. The cell pellets were thawed and resuspended in buffer A (50 mM Tris, pH 7.5, 500 mM NaCl, 1 mM TCEP, 10% Glycerol) supplemented with 0.5% CHAPS, 1 mM PMSF, […] Leupeptin, 1 μg/ml Pepstatin, and the Pierce Universal Nuclease and cocktail tablet. Cleared lysates were loaded onto a Ni Sepharose™ excel column and washed with buffer A and bound protein was eluted with buffer A supplemented with 300 mM imidazole. The eluted protein was dialyzed against buffer A and digested by His-tagged TEV (1:5 ratio) overnight at 4° C. ZnCl2 was added into the sample at final 15 μM before loading onto a second Ni Sepharose™ excel column. Untagged WRN protein was eluted from the column with buffer A supplemented with 20 mM imidazole, dialyzed overnight into buffer B (50 mM Tris, pH 7.5, 1 mM TCEP, 10% Glycerol) supplemented with 150 mM NaCl and loaded onto a Heparin column. Proteins were eluted with a step gradient of buffer B supplemented with 150 mM, 200 mM, 300 mM and 500 mM NaCl. […]

[2] = test system: p21 induction in HCT 116 cells; assay: p21 induction in cells (In-Cell Western, p21/GAPDH ratio); format: cell-based; details: 24 h compound incubation, read-out: p21_EC50
In short: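 EC50 values come from nonlinear fits of percent activation, defined by the 800/700 nm p21-to-GAPDH ratio scaled between DMSO (low) and internal WRN inhibitor (high) controls. In-Cell Western read after 24 h compound exposure of HCT 116 cells at 37° C. Duplicate 11-point series, 2-fold steps, usually starting at 10 μM.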

Chain of human Werner helicase (WRN, amino acids 517-1235 with L1074F point mutation) (Q14191 other isoform, or with tags, fused parts or gaps L1074F (already in the parent)): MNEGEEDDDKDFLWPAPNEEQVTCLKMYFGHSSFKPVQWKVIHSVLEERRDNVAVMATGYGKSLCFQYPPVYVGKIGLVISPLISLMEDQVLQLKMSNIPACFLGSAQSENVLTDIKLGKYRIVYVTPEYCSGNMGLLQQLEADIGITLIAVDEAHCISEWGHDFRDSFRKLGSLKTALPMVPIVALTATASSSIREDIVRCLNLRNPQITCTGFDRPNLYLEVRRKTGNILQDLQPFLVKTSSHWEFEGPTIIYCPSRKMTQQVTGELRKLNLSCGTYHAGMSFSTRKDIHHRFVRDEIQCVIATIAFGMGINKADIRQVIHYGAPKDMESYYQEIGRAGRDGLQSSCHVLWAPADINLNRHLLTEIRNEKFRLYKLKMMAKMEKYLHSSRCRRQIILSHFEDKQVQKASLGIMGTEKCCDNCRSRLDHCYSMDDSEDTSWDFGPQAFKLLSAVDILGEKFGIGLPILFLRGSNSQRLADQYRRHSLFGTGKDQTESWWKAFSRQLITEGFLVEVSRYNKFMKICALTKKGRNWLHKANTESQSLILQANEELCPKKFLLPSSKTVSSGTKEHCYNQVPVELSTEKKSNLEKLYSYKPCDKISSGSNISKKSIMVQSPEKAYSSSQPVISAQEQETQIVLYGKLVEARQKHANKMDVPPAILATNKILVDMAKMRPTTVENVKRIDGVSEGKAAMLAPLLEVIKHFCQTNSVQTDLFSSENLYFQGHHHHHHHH

Row | SMILES | IC50 [1] | EC50 ([2]; Homo sapiens) | EC50 [2]
1 | CCc1c(N2CCN(C(=O)c3c(OC)ncc(C)c3O)CC2)c(=O)c2nn(-c3ccnc(OC)c3)nc2n1CC(=O)NC12CC(C(C)C)(C1)C2 [Compound I-114, 2-{5-ethyl-6-[4-(4-hydroxy-2-methoxy-5-methylpyridine-3-carbonyl)piperazin-1-yl]-2-(2-methoxypyridin-4-yl)-7-oxo-2H,4H,7H-[1,2,3]triazolo[4,5-b]pyridin-4-yl}-N-[3-(propan-2-yl)bicyclo[1.1.1]pentan-1-yl]acetamide] | 0.005 to 0.05 µM | ≤ 0.5 µM | –
2 | CCc1c(N2CCN(C(=O)c3ncnc(C)c3O)CC2)c(=O)c2nn(-c3ccncc3)nc2n1CC(=O)NC12CC(C(C)C)(C1)C2 [Compound I-134, 2-{5-ethyl-6-[4-(5-hydroxy-6-methylpyrimidine-4-carbonyl)piperazin-1-yl]-7-oxo-2-(pyridin-4-yl)-2H,4H,7H-[1,2,3]triazolo[4,5-b]pyridin-4-yl}-N-[3-(propan-2-yl)bicyclo[1.1.1]pentan-1-yl]acetamide] | 0.005 to 0.05 µM | 0.5 to 2 µM | –
3 | CCc1c(C2=C(C)CN(C(=O)c3ncnc(C)c3O)CC2)c(=O)c2nn(-c3ccnc(OC)c3)nc2n1CC(=O)NC12CC(C(C)C)(C1)C2 [Compound I-78, 2-{5-ethyl-6-[1-(5-hydroxy-6-methylpyrimidine-4-carbonyl)-5-methyl-1,2,3,6-tetrahydropyridin-4-yl]-2-(2-methoxypyridin-4-yl)-7-oxo-2H,4H,7H-[1,2,3]triazolo[4,5-b]pyridin-4-yl}-N-[3-(propan-2-yl)bicyclo[1.1.1]pentan-1-yl]acetamide] | 0.005 to 0.05 µM | 2 to 5 µM | –
4 | CCc1c(N2CCN(C(=O)c3c(O)ccc4ncoc34)CC2)c(=O)c2nn(C3CC3)nc2n1CC(=O)Nc1ccc(C(F)(F)F)cc1Cl [Compound I-133, N-[2-chloro-4-(trifluoromethyl)phenyl]-2-{2-cyclopropyl-5-ethyl-6-[4-(6-hydroxy-1,3-benzoxazole-7-carbonyl)piperazin-1-yl]-7-oxo-2H,4H,7H-[1,2,3]triazolo[4,5-b]pyridin-4-yl}acetamide] | 0.005 to 0.05 µM | ≤ 0.5 µM | –
5 | CCc1c(N2CCN(C(=O)c3ncnc(C)c3O)[C@H]3CC[C@@H]32)c(=O)c2nn(-c3ccnc(OC)c3)nc2n1CC(=O)NC1CC2(C1)CC(C)(C)C2 [Compound I-72, N-{6,6-dimethylspiro[3.3]heptan-2-yl}-2-{5-ethyl-6-[(1S,6S)-5-(5-hydroxy-6-methylpyrimidine-4-carbonyl)-2,5-diazabicyclo[4.2.0]octan-2-yl]-2-(2-methoxypyridin-4-yl)-7-oxo-2H,4H,7H-[1,2,3]triazolo[4,5-b]pyridin-4-yl}acetamide] | 0.005 to 0.05 µM | 2 to 5 µM | –
6 | CCc1c(N2CCN(C(=O)c3ncnc(C)c3O)CC2)c(=O)c2nn(-c3ccnc(OC)c3)nc2n1CC(=O)NC12CC(C3CC3)(C1)C2 [Compound I-135, N-{3-cyclopropylbicyclo[1.1.1]pentan-1-yl}-2-{5-ethyl-6-[4-(5-hydroxy-6-methylpyrimidine-4-carbonyl)piperazin-1-yl]-2-(2-methoxypyridin-4-yl)-7-ox0-2H,4H,7H-[1,2,3]triazolo[4,5-b]pyridin-4-yl}acetamide] | 0.005 to 0.05 µM | ≤ 0.5 µM | –
7 | CCc1c(N2CCN(C(=O)c3ncnc(C)c3O)[C@@H]3CCC[C@@H]32)c(=O)c2nn(-c3ccnc(OC)c3)nc2n1CC(=O)NC12CC(C(C)C)(C1)C2 (relative stereo) [Compound I-77, rel-2-{6-[(4aR,7aS)-4-(5-hydroxy-6-methylpyrimidine-4-carbonyl)-octahydro-1H-cyclopenta[b]pyrazin-1-yl]-5-ethyl-2-(2-methoxypyridin-4-yl)-7-oxo-2H,4H,7H-[1,2,3]triazolo[4,5-b]pyridin-4-yl}-N-[3-(propan-2-yl)bicyclo[1.1.1]pentan-1-yl]acetamide] | > 0.5 µM | > 5 µM | –
8 | CCc1c(N2CCN(C(=O)c3cccc4ccoc34)[C@H]3CC[C@@H]32)c(=O)c2nn(-c3ccnc(OC)c3)nc2n1CC(=O)Nc1ccc(C(F)(F)F)cc1Cl [Compound I-119, 2-{6-[(1S,6S)-5-(1-benzofuran-7-carbonyl)-2,5-diazabicyclo[4.2.0]octan-2-yl]-5-ethyl-2-(2-methoxypyridin-4-yl)-7-oxo-2H,4H,7H-[1,2,3]triazolo[4,5-b]pyridin-4-yl}-N-[2-chloro-4-(trifluoromethyl)phenyl]acetamide] | 0.005 to 0.05 µM | > 5 µM | –
9 | CCc1c(N2CCN(C(=O)c3c(OC)ncc(C)c3O)[C@H]3CC[C@@H]32)c(=O)c2nn(-c3ccnc(OC)c3)nc2n1CC(=O)NC12CC(C(C)C)(C1)C2 [Compound I-17, 2-(5-ethyl-6-((1S,6S)-5-(4-hydroxy-2-methoxy-5-methylnicotinoyl)-2,5-diazabicyclo[4.2.0]octan-2-yl)-2-(2-methoxypyridin-4-yl)-7-oxo-2,7-dihydro-4H-[1,2,3]triazolo[4,5-b]pyridin-4-yl)-N-(3-isopropylbicyclo[1.1.1]pentan-1-yl)acetamide] | 0.005 to 0.05 µM | – | ≤ 0.5 µM
10 | CCc1c(N2CCN(C(=O)c3ncnc(C)c3O)[C@H]3CC[C@@H]32)c(=O)c2nn(-c3ccnc(OC)c3)nc2n1CC(=O)NC12CC(C(C)(F)F)(C1)C2 [Compound I-61, N-[3-(1,1-difluoroethyl)bicyclo[1.1.1]pentan-1-yl]-2-{5-ethyl-6-[(1S,6S)-5-(5-hydroxy-6-methylpyrimidine-4-carbonyl)-2,5-diazabicyclo[4.2.0]octan-2-yl]-2-(2-methoxypyridin-4-yl)-7-oxo-2H,4H,7H-[1,2,3]triazolo[4,5-b]pyridin-4-yl}acetamide] | 0.005 to 0.05 µM | – | ≤ 0.5 µM
11 | CCc1c(N2CCN(C(=O)c3c(O)ccnc3OC)CC2)c(=O)c2nn(-c3ccnc(OC)c3)nc2n1CC(=O)NC12CC(C(F)(F)F)(C1)C2 [Compound I-143, 2-{5-ethyl-6-[4-(4-hydroxy-2-methoxypyridine-3-carbonyl)piperazin-1-yl]-2-(2-methoxypyridin-4-yl)-7-oxo-2H,4H,7H-[1,2,3]triazolo[4,5-b]pyridin-4-yl}-N-[3-(trifluoromethyl)bicyclo[1.1.1]pentan-1-yl]acetamide] | 0.005 to 0.05 µM | 0.5 to 2 µM | –
12 | CCc1c(N2CCN(C(=O)c3c(OC)ncc(C)c3O)[C@H]3CC[C@@H]32)c(=O)c2nn(-c3ccnc(OC)c3)nc2n1CC(=O)Nc1ccc(C(F)(F)F)cc1F [Compound I-102, 2-{5-ethyl-6-[(1S,6S)-5-(4-hydroxy-2-methoxy-5-methylpyridine-3-carbonyl)-2,5-diazabicyclo[4.2.0]octan-2-yl]-2-(2-methoxypyridin-4-yl)-7-oxo-2H,4H,7H-[1,2,3]triazolo[4,5-b]pyridin-4-yl}-N-[2-fluoro-4-(trifluoromethyl)phenyl]acetamide] | ≤ 0.005 µM | ≤ 0.5 µM | –
